Reference: patent US20230339902A1, “TRICYCLIC LIGANDS FOR DEGRADATION OF IKZF2 OR IKZF4” (C4 Therapeutics, Inc., priority 2020, published 2023)
Like-named read-outs stand apart in the source and are kept apart here.

Key:
GSPT1 = molecular target: T1, GSPT1 (Homo sapiens, UniProt P15170+Q96SW2); test: GSPT1 degradation assay, HiBiT method (Nano-Glo HiBiT Lytic Assay); format: cell-based; settings: 293T.114 (HiBiT-GSPT1) cells, 6 hours
T1 construct: endogenously expressing GSPT1 with HiBiT fusion tag via CRISPR; endogenous in cells; host or cells: 293T.114 (HiBiT-GSPT1), CRISPR knock-in, generated in house
T1 sequence (P15170 whole entry, the tested form may be a part): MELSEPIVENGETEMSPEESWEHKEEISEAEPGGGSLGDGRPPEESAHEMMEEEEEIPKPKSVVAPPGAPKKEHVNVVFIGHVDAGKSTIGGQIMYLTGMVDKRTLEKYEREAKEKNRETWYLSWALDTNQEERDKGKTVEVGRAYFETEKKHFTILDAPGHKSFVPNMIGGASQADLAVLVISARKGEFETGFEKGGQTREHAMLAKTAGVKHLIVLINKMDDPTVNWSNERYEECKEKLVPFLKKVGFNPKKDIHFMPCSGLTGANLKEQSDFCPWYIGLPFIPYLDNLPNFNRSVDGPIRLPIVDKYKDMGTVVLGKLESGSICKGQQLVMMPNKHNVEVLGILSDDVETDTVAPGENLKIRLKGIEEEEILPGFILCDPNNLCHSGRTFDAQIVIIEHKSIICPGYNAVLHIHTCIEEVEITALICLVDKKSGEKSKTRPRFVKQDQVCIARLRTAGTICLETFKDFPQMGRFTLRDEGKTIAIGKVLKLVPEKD
T1 sequence (Q96SW2 whole entry, the tested form may be a part): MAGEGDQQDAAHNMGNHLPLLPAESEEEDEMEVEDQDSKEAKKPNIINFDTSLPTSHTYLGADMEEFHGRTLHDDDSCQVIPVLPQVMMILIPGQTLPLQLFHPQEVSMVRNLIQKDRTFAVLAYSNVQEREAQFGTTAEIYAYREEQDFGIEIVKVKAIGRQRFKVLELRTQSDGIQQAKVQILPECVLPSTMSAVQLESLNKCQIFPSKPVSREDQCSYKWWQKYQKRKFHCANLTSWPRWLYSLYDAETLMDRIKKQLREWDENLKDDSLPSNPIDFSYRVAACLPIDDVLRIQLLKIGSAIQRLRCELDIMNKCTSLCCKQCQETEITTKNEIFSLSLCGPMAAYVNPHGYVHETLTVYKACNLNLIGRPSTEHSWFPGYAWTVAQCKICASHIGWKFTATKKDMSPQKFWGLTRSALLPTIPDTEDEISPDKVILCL
T1 sequence (Q16531 whole entry partner, the tested form may be a part): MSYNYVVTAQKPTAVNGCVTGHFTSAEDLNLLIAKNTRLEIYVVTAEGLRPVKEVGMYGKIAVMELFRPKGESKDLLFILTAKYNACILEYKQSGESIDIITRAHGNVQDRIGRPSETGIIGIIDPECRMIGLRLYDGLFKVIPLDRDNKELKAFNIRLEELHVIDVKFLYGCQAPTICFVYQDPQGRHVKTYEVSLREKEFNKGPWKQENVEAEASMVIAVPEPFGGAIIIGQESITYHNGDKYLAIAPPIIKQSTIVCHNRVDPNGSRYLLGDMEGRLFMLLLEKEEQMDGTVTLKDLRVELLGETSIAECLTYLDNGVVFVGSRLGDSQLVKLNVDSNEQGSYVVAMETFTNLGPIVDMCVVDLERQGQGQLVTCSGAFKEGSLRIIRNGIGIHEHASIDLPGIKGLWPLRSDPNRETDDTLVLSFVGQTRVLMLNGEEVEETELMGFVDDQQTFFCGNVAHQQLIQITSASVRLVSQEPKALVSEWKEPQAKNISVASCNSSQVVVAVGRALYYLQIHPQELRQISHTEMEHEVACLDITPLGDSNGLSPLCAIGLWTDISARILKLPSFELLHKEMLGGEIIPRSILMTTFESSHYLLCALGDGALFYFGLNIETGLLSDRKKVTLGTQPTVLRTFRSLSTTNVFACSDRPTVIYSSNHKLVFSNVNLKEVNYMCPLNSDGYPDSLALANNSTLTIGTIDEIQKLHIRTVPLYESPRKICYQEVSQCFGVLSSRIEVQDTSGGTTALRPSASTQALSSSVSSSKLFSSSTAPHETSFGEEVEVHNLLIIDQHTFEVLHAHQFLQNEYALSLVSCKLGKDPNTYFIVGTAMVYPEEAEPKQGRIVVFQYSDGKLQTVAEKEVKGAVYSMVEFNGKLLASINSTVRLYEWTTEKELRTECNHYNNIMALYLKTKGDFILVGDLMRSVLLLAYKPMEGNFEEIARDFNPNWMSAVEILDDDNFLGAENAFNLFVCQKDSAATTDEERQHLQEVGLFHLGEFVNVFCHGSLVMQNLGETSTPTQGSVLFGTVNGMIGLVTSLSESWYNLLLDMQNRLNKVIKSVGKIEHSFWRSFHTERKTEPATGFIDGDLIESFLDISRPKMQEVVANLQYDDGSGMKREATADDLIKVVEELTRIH
Method: Example 62 GSPT1 Degradation Assay
DMEM no-phenol red medium and fetal bovine serum (FBS) were purchased from Gibco (Grand Island, NY, USA). Nano-Glo® HiBiT Lytic Assay System was purchased from Promega (Madison, WI, USA). 293T.114 (HiBiT-GSPT1) cell line was generated in house, endogenously expressing GSPT1 with HiBiT fusion tag via CRISPR. Cell culture flasks and 384-well microplates were acquired from VWR (Radnor, PA, USA).
GSPT1 Degradation Analysis
(§1) GSPT1 degradation was determined based on quantification of luminescent signal using Nano-Glo® HiBiT Lytic Assay kit. Test compounds were added to the 384-well plate from a top concentration of 10 µM with 11 points, half log titration in duplicates. 293T.114 cells were added into 384-well plates at a cell density of 6000 cells per well. The plates were kept at 37° C. with 5% CO2 for 6 hours. The cells treated in the absence of the test compound were the negative control and the cells without Nano-Glo® HiBiT Lytic reagent were the positive control. After 6-hour incubation, Nano-Glo® HiBiT Lytic Assay reagents were added to the designated wells. Luminescence was acquired on EnVision™ Multilabel Reader (PerkinElmer, Santa Clara, CA, USA).

IKZF2 = molecular target: T2, IKZF2 (Homo sapiens, UniProt Q96SW2+Q9UKS7); test: IKZF2 degradation assay, HiBiT method (Nano-Glo HiBiT Lytic Assay); format: cell-based; settings: JURKAT.21 (IKZF2-HiBiT) cells
T2 construct: endogenously expressing IKZF2 with HiBiT fusion tag via CRISPR; host or cells: JURKAT.21 (IKZF2-HiBiT), CRISPR knock-in
T2 sequence (Q9UKS7 whole entry, the tested form may be a part): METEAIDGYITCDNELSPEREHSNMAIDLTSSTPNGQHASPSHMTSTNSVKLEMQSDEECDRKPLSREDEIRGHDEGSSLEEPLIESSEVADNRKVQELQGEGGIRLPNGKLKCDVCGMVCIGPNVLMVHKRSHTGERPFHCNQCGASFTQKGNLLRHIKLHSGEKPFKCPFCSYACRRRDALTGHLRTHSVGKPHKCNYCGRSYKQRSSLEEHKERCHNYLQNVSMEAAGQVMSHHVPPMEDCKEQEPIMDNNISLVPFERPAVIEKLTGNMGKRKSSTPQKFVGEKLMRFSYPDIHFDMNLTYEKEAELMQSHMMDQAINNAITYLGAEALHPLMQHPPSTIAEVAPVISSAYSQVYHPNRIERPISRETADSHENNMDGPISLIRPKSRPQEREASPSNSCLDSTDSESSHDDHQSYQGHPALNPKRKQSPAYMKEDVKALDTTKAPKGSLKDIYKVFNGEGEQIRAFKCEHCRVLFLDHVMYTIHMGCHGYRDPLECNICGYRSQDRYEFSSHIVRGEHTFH
T2 sequence (Q96SW2 whole entry, the tested form may be a part): as the sequence (Q96SW2 whole entry, the tested form may be a part) above
T2 sequence (Q16531 whole entry partner, the tested form may be a part): as the sequence (Q16531 whole entry partner, the tested form may be a part) above
From the text: Example 61 IKZF2 Degradation Assay
RPMI 1640 Medium without phenol red and fetal bovine serum (FBS) were purchased from Gibco (Grand Island, NY, USA). Nano-Glo® HiBiT Lytic Assay System was purchased from Promega (Madison, WI, USA). JURKAT.21 (IKZF2-HiBiT) cell line, endogenously expressing IKZF2 with HiBiT fusion tag via CRISPR, was purchasing from Synthego (Menlo Park, CA, USA). Cell culture flasks and 384-well microplates were acquired from VWR (Radnor, PA, USA).
IKZF2 Degradation Analysis
as §1, with “IKZF2” for “GSPT1”, “JURKAT.216” for “293T.114”, “5000” for “6000”, “6 or 24” for “6”, “6-hour or 24-hour” for “6-hour”, “cells.” for “designated wells.”

[1] = 6 hours, read-out: HiBiT-Degradation JURKAT.21 IKZF2 6 hours DC50
[2] = 6 hours, read-out: HiBiT-Degradation JURKAT.21 IKZF2 6 hours Emax
[3] = 24 hours, read-out: HiBiT-Degradation JURKAT.21 IKZF2 24 hours DC50
[4] = 24 hours, read-out: HiBiT-Degradation JURKAT.21 IKZF2 24 hours Emax

| Compound | DC50 (GSPT1) | Emax (GSPT1) | DC50 (IKZF2; [1]) | Emax (IKZF2; [2]) | DC50 (IKZF2; [3]) | Emax (IKZF2; [4]) |
| --- | --- | --- | --- | --- | --- | --- |
| CN1CCC(F)(c2ccc3c4c(cccc24)N(C2CCC(=O)NC2=O)C3=O)CC1 (stereo not shown) [Compound 97] | > 10 µM | 60 to 95% | > 10 µM | 60 to 95% |  |  |
| CN1CC(Cc2ccc3c4c(cccc24)N(C2CCC(=O)NC2=O)C3=O)C1 (stereo not shown) [Compound 105, 3-[5-[(1-methylazetidin-3-yl)methyl]-2-oxo-benzo[cd]indol-1-yl]piperidine-2,6-dione] | > 10 µM | > 95% | > 10 µM | 60 to 95% |  |  |
| O=C1CCC(N2C(=O)c3ccc(C4(F)CCN(Cc5ccccc5)CC4)c4cccc2c34)C(=O)N1 (stereo not shown) [Compound 96, 3-[5-(1-benzyl-4-fluoro-4-piperidyl)-2-oxo-benzo[cd]indol-1-yl]piperidine-2,6-dione] | > 10 µM | 60 to 95% | > 10 µM | 60 to 95% |  |  |
| CC(NC(=O)c1ccc2c3c(cccc13)N(C1CCC(=O)NC1=O)C2=O)c1ccccc1 (stereo not shown) [Compound 107, 1-(2,6-dioxo-3-piperidyl)-2-oxo-N-(1-phenylethyl)benzo[cd]indole-5-carboxamide] | > 10 µM | 60 to 95% | > 10 µM | 60 to 95% |  |  |
| CN1CCN(c2ccc3c4c(ccnc24)N(C2CCC(=O)NC2=O)C3=O)CC1 (stereo not shown) [Compound 121] | > 10 µM | 60 to 95% | > 10 µM | > 95% |  |  |
| O=C1CCC(N2C(=O)c3ccc(CC4CN(Cc5ccccc5)C4)c4cccc2c34)C(=O)N1 (stereo not shown) [Compound 103, 3-[5-[(1-benzylazetidin-3-yl)methyl]-2-oxo-benzo[cd]indol-1-yl]piperidine-2,6-dione] | > 10 µM | 60 to 95% | > 10 µM | 60 to 95% |  |  |
| CC(NC(=O)c1ccc2c3c(ccnc13)N(C1CCC(=O)NC1=O)C2=O)c1ccccc1 (stereo not shown) [Compound 122, 27-(2,6-dioxo-3-piperidyl)-20-oxo-N-(1-phenylethyl)-24,27-diazatricyclododeca-6,8(15),9(24),13(16),14(17)-pentaene-14-carboxamide] | > 10 µM | 60 to 95% | > 10 µM | 60 to 95% |  |  |
| O=C1CCC(N2C(=O)c3ccc(N4CCN(Cc5ccccc5)CC4)c4nccc2c34)C(=O)N1 (stereo not shown) [Compound 120, 3-[18-(4-benzylpiperazin-1-yl)-24-oxo-26,30-diazatricyclododeca-5,7(19),8(26),17(20),18(21)-pentaen-30-yl]piperidine-2,6-dione] | > 10 µM | 60 to 95% | > 10 µM | 60 to 95% |  |  |
| O=C1CCC(N2C(=O)c3ccc(C4(F)CN(Cc5ccccc5)C4)c4cccc2c34)C(=O)N1 (stereo not shown) [Compound 100, 3-[5-(1-benzyl-3-fluoro-azetidin-3-yl)-2-oxo-benzo[cd]indol-1-yl]piperidine-2,6-dione] | > 10 µM | > 95% | > 10 µM | 60 to 95% |  |  |
| O=C1CCC(N2C(=O)c3ccc(C4CCN(Cc5ccccc5)C4)c4cccc2c34)C(=O)N1 (stereo not shown) [Compound 99] | > 10 µM | > 95% | > 10 µM | 60 to 95% |  |  |
| Cc1cc(C)nc(-c2ccc3c4c(cccc24)N(C2CCC(=O)NC2=O)C3=O)n1 (stereo not shown) [Compound 106, 3-[5-(4,6-dimethylpyrimidin-2-yl)-2-oxo-benzo[cd]indol-1-yl]piperidine-2,6-dione] | > 10 µM | 60 to 95% | < 0.5 µM | 45 to 60% | < 0.5 µM | < 45% |
| O=C1CCC(N2C(=O)c3ccc(C4CCN(Cc5cccc(S(=O)(=O)N6CCOCC6)c5)CC4)c4nccc2c34)C(=O)N1 (stereo not shown) [Compound 128, 3-[21-[1-[(3-morpholinosulfonylphenyl)methyl]-4-piperidyl]-29-oxo-31,35-diazatricyclododeca-3(21),4(22),5(23),6(31),24-pentaen-35-yl]piperidine-2,6-dione] | > 10 µM | 60 to 95% | > 10 µM | 60 to 95% | > 10 µM | 60 to 95% |
| CN1CC(c2ccc3c4c(cccc24)N(C2CCC(=O)NC2=O)C3=O)C1 (stereo not shown) [Compound 102, 3-[5-(1-methylazetidin-3-yl)-2-oxo-benzo[cd]indol-1-yl]piperidine-2,6-dione] | > 10 µM | 60 to 95% | > 10 µM | 60 to 95% | > 10 µM | 60 to 95% |
